Results as given in US12370235B2, “Synthetic, non-natural antimicrobial peptides inspired by Staphylococcus auricularis delta toxin” (University of Saskatchewan, priority 2021, dated 2025).
In brackets after ≈: the same amount, converted by molar mass. Square brackets hold non-standard residues; d marks the D form. Peptide text beside a SMILES is read from it.

Tests used:
C. albicans MYA-2876 = assay: MIC, YPD broth; format: cell-based, Candida albicans; conditions: Table 8
Method in brief: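 Yeast cells were diluted in YPD broth, and 180 μl aliquots were mixed with 20 μl of peptide from 2-fold serial dilutions in flat-bottom 96-well microtitre plates. Wells receiving 20 μl sterile water served as controls. After standing incubation overnight at 37° C, the MIC was taken as the lowest peptide concentration with no visible microbial growth.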

C. albicans Y537 = assay: MIC, YPD broth; format: cell-based, Candida albicans; conditions: Table 8
[1] = Circular dichroism spectroscopy; format: physicochemical; conditions: CD, 50% (v/v) TFE
Method in brief: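 Secondary structure of peptides dissolved in water at 0.3–0.5 mg/mL was assessed by CD. Spectra were recorded from 180 to 260 nm at room temperature in a 0.1 cm quartz cuvette; water and 50% (v/v) TFE conditions were compared.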

MRSA ATCC 33592 [2] = assay: SYTOX Green membrane integrity assay; format: cell-based, Staphylococcus aureus; conditions: one fourth to four-fold the MIC
Experimental: (§1) Membrane disruption and depolarization are commonly reported mechanisms of AMP action. Two indirect assays that rely on fluorescent dyes were employed to assess the interaction of STIP3-29 and D-STIP3-29 with bacterial membranes. First, changes to SYTOX fluorescence was measured when MRSA ATCC 33592 was treated with increasing peptide concentrations ranging from one fourth to four-fold the MIC. […] Next, DiSC3(5), a cationic dye that binds to polarized membranes was used to report on possible depolarization related to AMP treatment. […] Thus, without wishing to be bound by theory, a more conservative explanation of the results is that the cationic peptides increase membrane permeability to SYTOX and that the like-charge of the AMPs to the reporter of polarization may confound the interpretation of the indirect assay. For example, the AMPs may simply displace the self-quenching DiSC3(5) molecules from the membrane surface without causing depolarization.

[3] = test system: S. aureus / MRSA (ATCC MP-2 panel); format: cell-based, Staphylococcus aureus; conditions: in words
Method in brief: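 MIC by broth microdilution in cation-adjusted Mueller Hinton broth: cultures diluted to OD 6×10^−4 and exposed to 2-fold peptide dilution series, standing overnight at 37° C. MIC = lowest peptide concentration with no visible growth. Panel: one methicillin-sensitive S. aureus plus 7 MRSA strains of distinct SCCmec genotypes.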

MRSA ATCC 33592 [4] = assay: DiSC3(5) membrane polarization assay; format: cell-based, Staphylococcus aureus; conditions: 1.56 to 25 μg/mL
Experimental: as §1

[5] = test system: S. aureus ATCC BAA-2094 (MRSA SCCmec type V); assay: MIC, broth dilution; format: cell-based, Staphylococcus aureus; conditions: Table 5; STIP3 variants, highest concentration 100 μg/mL
Method in brief: (§2)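 Peptides (95% purity) were serially diluted 2-fold and mixed with bacteria diluted to OD 6×10^−4 in cation-adjusted Mueller Hinton broth. Standing cultures were incubated overnight at 37° C. MIC was the lowest peptide concentration with no observed growth.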

[6] = test system: S. aureus ATCC BAA-42 (MRSA SCCmec type VI); assay: MIC, broth dilution; format: cell-based, Staphylococcus aureus; conditions: Table 5; STIP3 variants, highest concentration 100 μg/mL
Method in brief: as §2

[7] = test system: S. aureus ATCC BAA-41 (MRSA SCCmec type II); assay: MIC, broth dilution; format: cell-based, Staphylococcus aureus; conditions: Table 5; STIP3 variants, highest concentration 100 μg/mL
Method in brief: as §2

[8] = test system: S. aureus ATCC BAA-1683 (MRSA SCCmec type IV); assay: MIC, broth dilution; format: cell-based, Staphylococcus aureus; conditions: Table 5; STIP3 variants, highest concentration 100 μg/mL
Method in brief: as §2

S. aureus ATCC 29213 = assay: MIC, broth dilution; format: cell-based, Staphylococcus aureus; conditions: Table 5; STIP3 variants, highest concentration 100 μg/mL
Method in brief: as §2

[9] = test system: S. aureus ATCC BAA-44 (MRSA SCCmec type I); assay: MIC, broth dilution; format: cell-based, Staphylococcus aureus; conditions: Table 5; STIP3 variants, highest concentration 100 μg/mL
Method in brief: as §2

[10] = test system: S. aureus ATCC 33592 (MRSA SCCmec type III); assay: MIC, broth dilution; format: cell-based, Staphylococcus aureus; conditions: Table 5; STIP3 variants, highest concentration 100 μg/mL
Method in brief: as §2

[11] = test system: S. aureus ATCC BAA-2313 (MRSA SCCmec type XI); assay: MIC, broth dilution; format: cell-based, Staphylococcus aureus; conditions: Table 5; STIP3 variants, highest concentration 100 μg/mL
Method in brief: as §2

HeLa cells = format: cell-based; conditions: 24 h, alamarBlue
Experimental: Peptide cytotoxicity. In vitro cytotoxicity was measured using the 3D EpiDerm skin tissues and HeLa Cells using a fluorescent reporter of cell viability, alamarBlue (ThermoFisher Scientific). 3D EpiDerm skin tissues (MatTek EPI-200-AFAB) were transferred to a 12 well plate containing 600 μL of AFAB-assay medium supplemented with 10% v/v alamarBlue. […] HeLa cells were seeded in a 96-well plate (2×10^4 cells/per well) and incubated overnight at 37° C. and 5% CO2 in a humidified incubator to prepare wells at ˜50% confluency of adherent cells. After the incubation, spent DMEM was removed and cells were washed with PBS. alamarBlue-containing medium was prepared by mixing Phenol Red-free DMEM with alamarBlue solution at a 9:1 ratio and a 180 μl volume was added to each well. Cells were treated with peptides varying from 3.25 to 200 μg/mL and then incubated for 24 h. The fluorescence intensities of treated cultures were normalized to values measured for an untreated control group. After the 24 h incubation period, alamarBlue fluorescence was measured at 590 nm upon excitation at 560 nm using Varioskan Lux plate reader (Thermo Scientific) plate reader.

## CC[C@@H](C)[C@@H](NC(=O)[C@@H](Cc1c[nH]c2ccccc12)NC(=O)[C@@H](CCCCN)NC(=O)[C@H](NC(=O)[C@@H](CC(C)C)NC(=O)CNC(=O)CNC(=O)[C@H](NC(=O)[C@H](N)[C@H](C)O)C(C)C)C(C)C)C(=O)N[C@H](CC(C)C)C(=O)N[C@H](CCCCN)C(=O)N[C@@H](C(=O)N[C@@H](C(=O)N[C@H](CCCCN)C(=O)N[C@H](CCCCN)C(=O)N[C@H](Cc1ccccc1)C(=O)N[C@H](C)C(N)=O)C(C)C)[C@H](C)O [D-STIP3-29, TVGGLVKWILKTVKKFA-NH2] (H-[dT][dV]GG[dL][dV][dK][dW][dI][dL][dK][dT][dV][dK][dK][dF][dA]-NH2; N-terminus assumed)
C. albicans MYA-2876
  MIC C. albicans MYA-2876: 50 µg/mL (≈ 26.5 µM)
C. albicans Y537
  MIC C. albicans Y537: 50 µg/mL (≈ 26.5 µM)
[1]
  α helicity (%): 47%
MRSA ATCC 33592 [2]
  SYTOX fluorescence change: rapid and concentration dependent increase in SYTOX fluorescence
[3]
  activity relative to the L-enantiomer: just as active as the L-enantiomer
MRSA ATCC 33592 [4]
  DiSC3(5) fluorescence change: dose-dependent increase in fluorescence
[5]
  MIC S. aureus ATCC BAA 2094 (V): 6.25 µg/mL (≈ 3.31 µM)
[6]
  MIC S. aureus ATCC BAA 42 (VI): 6.25 µg/mL (≈ 3.31 µM)
[7]
  MIC S. aureus ATCC BAA 41 (II): 6.25 µg/mL (≈ 3.31 µM)
[8]
  MIC S. aureus ATCC BAA 1683 (IV): 6.25 µg/mL (≈ 3.31 µM)
S. aureus ATCC 29213
  MIC S. aureus ATCC 29213: 6.25 µg/mL (≈ 3.31 µM)
[9]
  MIC S. aureus ATCC BAA 44 (I): 12.5 µg/mL (≈ 6.62 µM)
[10]
  MIC S. aureus ATCC 33592 (III): 6.25 µg/mL (≈ 3.31 µM)
[11]
  MIC S. aureus ATCC BAA 2313 (XI): 6.25 µg/mL (≈ 3.31 µM)
HeLa cells
  IC50, HeLa cell survival: 39 ± 3 µg/mL (≈ 20.7 µM)
